{"source": "patent US20260240154A1", "about": "“GLOBODERA PALLIDA CONTROL AGENT” (National Agriculture and Food Research Organization, priority 2021, published 2026)", "key": {"Globodera pallida eggs": {"test_system": "Globodera pallida eggs", "experiment": "Hatching accelerating effect evaluation test for Globodera pallida (liquid immersion test)", "assay_type": "in vivo", "details": "1 mL of 2 ppm test reagent solution added to 1 mL egg suspension; 16° C.; about 2 weeks; two replicates", "method": "A predetermined amount of compound (I) was dissolved in an aqueous solution containing 0.05% (v/v) of polyoxyethylene sorbitan monolaurate (Tween20) to prepare a 100 ppm solution of compound (I).\nThe 100 ppm solution of compound (I) was further diluted with a 0.05% (v/v) Tween20 aqueous solution to prepare a test reagent solution with a concentration of compound (I) of 2 ppm.\nThe cysts of Globodera pallida increased in a greenhouse before the previous year were isolated from the soil, immersed in distilled water and kept at 16° C. for about 2 weeks were crushed with a scalpel and the eggs were taken out to obtain an egg suspension. After preparing a density of approximately 600 eggs per mL, Tween 20 was added to a concentration of 0.05% (v/v). 1 mL of this egg suspension was put into a 13.5 mL screw cap glass vial (inner diameter: 2.1 cm, height: 4.8 cm), and 1 mL each of a test reagent solution with a concentration of compound (I) of 2 ppm was added. It was covered and kept at 16° C.\nAbout 2 weeks later, 1 mL was taken out, and the number of hatching larvae and the number of eggs were counted under a stereomicroscope. Two replicates were installed for each compound, and the average hatching rate was calculated."}, "Globodera pallida [1]": {"test_system": "Globodera pallida", "experiment": "Reduction test of Globodera pallida egg density (field plot test)", "assay_type": "in vivo", "details": "for Gp density reduction rate: about 80 days, average of four plots", "method": "With reference to Formulation Example 4, a 10% solution of compound No. 2 was prepared. This 10% solution was diluted with distilled water, to prepare test reagent solutions with concentrations of 300 ppm, 30 ppm, and 3 ppm.\nRound plots (diameter:30 cm) were installed in a field infected with Globodera pallida, and the reducing effect of reagent solution treatment on the nematode egg density in soil was investigated. Each plot was prepared by burying a cylinder (30 cm in diameter and 25 cm in height) made of polyethylene sheet to a depth of 20 cm. Test plots were installed in the field and soil samples in each plot were collected for the initial density survey. Then, the test reagent solution of each concentration was sprayed at a ratio of 5 or 1 L per square meter and the soil in the plot was mixed with a shovel to a depth of 15 cm. As a result, treatments with four different doses of compound (1500, 300, 30 and 3 g per 10 a) were prepared.\nAbout 80 days later, the soil in each plots was collected, and the nematode egg density in the soil was investigated, as follows. The cysts were separated from 100 g of dried soil by a sieving cyst flow method, crushed with a scalpel to extract eggs, suspended in distilled water to extract a certain amount, and the number of eggs was counted under a stereomicroscope.\nFour plots were installed for each concentration, and the average density reduction rate was calculated from the initial density and final density."}, "Globodera pallida [2]": {"test_system": "Globodera pallida", "experiment": "Reduction test of Globodera pallida egg density (pot test)", "assay_type": "in vivo", "details": "30 days, three pots; for Average density reduction rate at 10 ppm (%): 32 mL of 10 ppm test reagent solution in 800 mL field soil; for Average density reduction rate at 100 ppm (%): 32 mL of 100 ppm test reagent solution in 800 mL field soil", "method": "After 20 mg of compound (I) was dissolved in 1 mL of dimethylsulfoxide, 199 mL of a 0.1% polyoxyethylene sorbitan monolaurate aqueous solution was added thereto, to obtain a test reagent solution with a concentration of compound (I) of 100 ppm. Further, this was diluted 10-fold with distilled water, to prepare a 10 ppm test reagent solution.\nSoil was collected from a field infected with Globodera pallida, and the egg density was investigated, as follows. The cysts were separated from 100 g of the dried soil by dry flotation-sieving method and crushed to release nematode eggs, and the number of eggs was counted under a stereomicroscope. This was taken as the initial density.\n32 mL of the test reagent solution adjusted to 100 ppm or 10 ppm was added to 800 mL of the collected field soil, followed by stirring well. It was packed in a plastic pot (upper diameter: 10.5 cm, height: 22.5 cm), and placed in a greenhouse without any planting for 30 days. Each pot was watered with 26 mL of distilled water every 6 to 7 days.\nAfter 30 days, the soil was spread on an aluminum bat and air-dried, and the cysts were separated from 100 g of the dry soil in the same manner as above, to count the number of remaining eggs (density after treatment). Three pots were installed per concentration for each compound, and the average density reduction rate was calculated from the initial density and the density after treatment."}, "Gp": {"test_system": "Gp", "details": "relative to natural hatching factor; cited from earlier work"}}, "data": [{"compound": "Cc1ccc(C2CC(=O)NC2(C)C)cc1", "note": "(stereo not shown) [Compound 2, 5,5-dimethyl-4-(4-methylphenyl)-2-pyrrolidinone]", "values": [{"measurement": "Average hatching rate (%)", "setting": "Globodera pallida eggs", "value": 94.3, "unit": "%"}, {"measurement": "Gp density reduction rate", "setting": "Globodera pallida [1]; dose 3 g/10 a", "value": 65.6, "unit": "%"}, {"measurement": "Gp density reduction rate", "setting": "Globodera pallida [1]; dose 300 g/10 a", "value": 94.4, "unit": "%"}, {"measurement": "Gp density reduction rate", "setting": "Globodera pallida [1]; dose 1500 g/10 a", "value": 98.4, "unit": "%"}, {"measurement": "Reduction of Gp density in the soil", "setting": "Globodera pallida [1]; dose of 30 g or more per 10a", "value": "≥ 80", "unit": "%"}, {"measurement": "Gp density reduction rate", "setting": "Globodera pallida [1]; dose printed as 'g/10 a' (third dose level)", "value": 88.8, "unit": "%"}, {"measurement": "Average density reduction rate at 10 ppm (%)", "setting": "Globodera pallida [2]", "value": 95.4, "unit": "%"}, {"measurement": "Average density reduction rate at 100 ppm (%)", "setting": "Globodera pallida [2]", "value": 98.0, "unit": "%"}]}, {"compound": "CC1(C)NC(=O)CC1c1ccc(Cl)cc1", "note": "(stereo not shown) [Compound 3, 5,5-dimethyl-4-(4-chlorophenyl)-2-pyrrolidinone]", "values": [{"measurement": "Average hatching rate (%)", "setting": "Globodera pallida eggs", "value": 95.2, "unit": "%"}, {"measurement": "Average density reduction rate at 10 ppm (%)", "setting": "Globodera pallida [2]", "value": 97.4, "unit": "%"}, {"measurement": "Average density reduction rate at 100 ppm (%)", "setting": "Globodera pallida [2]", "value": 98.5, "unit": "%"}]}, {"compound": "CC1(C)NC(=O)CC1c1ccc(Br)cc1", "note": "(stereo not shown) [Compound 4, 5,5-dimethyl-4-(4-bromophenyl)-2-pyrrolidinone]", "values": [{"measurement": "Average hatching rate (%)", "setting": "Globodera pallida eggs", "value": 97.9, "unit": "%"}, {"measurement": "Average density reduction rate at 10 ppm (%)", "setting": "Globodera pallida [2]", "value": 98.8, "unit": "%"}, {"measurement": "Average density reduction rate at 100 ppm (%)", "setting": "Globodera pallida [2]", "value": 98.9, "unit": "%"}]}, {"compound": "CC1(C)NC(=O)CC1c1ccc(F)c(F)c1", "note": "(stereo not shown) [Compound 12, 5,5-dimethyl-4-(3,4-difluoro-phenyl)-2-pyrrolidinone]", "values": [{"measurement": "Average hatching rate (%)", "setting": "Globodera pallida eggs", "value": 65.4, "unit": "%"}, {"measurement": "Average density reduction rate at 10 ppm (%)", "setting": "Globodera pallida [2]", "value": 97.7, "unit": "%"}, {"measurement": "Average density reduction rate at 100 ppm (%)", "setting": "Globodera pallida [2]", "value": 98.8, "unit": "%"}]}, {"compound": "Cc1ccc(C2CC(=O)OC2(C)C)cc1", "note": "(stereo not shown) [Compound 18, 5,5-dimethyl-4-(p-tolyl)dihydrofuran-2(3H)-one]", "values": [{"measurement": "Average hatching rate (%)", "setting": "Globodera pallida eggs", "value": 97.1, "unit": "%"}, {"measurement": "Average density reduction rate at 10 ppm (%)", "setting": "Globodera pallida [2]", "value": 81.7, "unit": "%"}, {"measurement": "Average density reduction rate at 100 ppm (%)", "setting": "Globodera pallida [2]", "value": 96.2, "unit": "%"}]}, {"compound": "Cc1ccc(C2CCC(=O)NC2(C)C)cc1", "note": "(stereo not shown) [Compound A-3, 6,6-dimethyl-5-(p-tolyl)piperidin-2-one]", "values": [{"measurement": "Average hatching rate (%)", "setting": "Globodera pallida eggs", "value": 97.2, "unit": "%"}, {"measurement": "Average density reduction rate at 10 ppm (%)", "setting": "Globodera pallida [2]", "value": 94.9, "unit": "%"}, {"measurement": "Average density reduction rate at 100 ppm (%)", "setting": "Globodera pallida [2]", "value": 97.2, "unit": "%"}]}, {"compound": "Cc1ccc(C2=CC(=O)OC2(C)C)c(C)c1", "note": "[Compound D-15]", "values": [{"measurement": "Average hatching rate (%)", "setting": "Globodera pallida eggs", "value": 94.9, "unit": "%"}, {"measurement": "Average density reduction rate at 10 ppm (%)", "setting": "Globodera pallida [2]", "value": 85.8, "unit": "%"}, {"measurement": "Average density reduction rate at 100 ppm (%)", "setting": "Globodera pallida [2]", "value": 98.2, "unit": "%"}]}, {"compound": "Cc1ccc(C)c(C2=CC(=O)OC2(C)C)c1", "note": "[Compound D-16]", "values": [{"measurement": "Average hatching rate (%)", "setting": "Globodera pallida eggs", "value": 66.5, "unit": "%"}]}, {"compound": "Cc1cc(C)cc(C2=CC(=O)OC2(C)C)c1", "note": "[Compound D-17]", "values": [{"measurement": "Average hatching rate (%)", "setting": "Globodera pallida eggs", "value": 55.4, "unit": "%"}]}, {"compound": "Cc1ccccc1C1=CC(=O)NC1(C)C", "note": "[Compound D-18]", "values": [{"measurement": "Average hatching rate (%)", "setting": "Globodera pallida eggs", "value": 58.8, "unit": "%"}]}, {"compound": "Cc1ccc(C2=CC(=O)NC2(C)C)c(C)c1", "note": "[Compound D-19]", "values": [{"measurement": "Average hatching rate (%)", "setting": "Globodera pallida eggs", "value": 95.7, "unit": "%"}]}, {"compound": "CC1=NN(c2ccc([N+](=O)[O-])cc2)C(=O)C1[N+](=O)[O-]", "note": "(stereo not shown) [picrolonic acid]", "values": [{"measurement": "Hatching activity, % of that of the natural hatching factor", "setting": "Gp", "value": "about 30%"}]}, {"compound": "[Na+].[Na+].[Na+].[O]=[V]([O-])([O-])[O-]", "note": "[sodium orthovanadate]", "values": [{"measurement": "Hatching activity, % of that of the natural hatching factor", "setting": "Gp", "value": "~60", "unit": "%"}]}, {"compound": "N#C[S-].[Na+]", "note": "[sodium thiocyanate]", "values": [{"measurement": "Hatching activity, % of that of the natural hatching factor", "setting": "Gp", "value": "about 30%"}]}, {"compound": "sodium metavanadate", "values": [{"measurement": "Hatching activity, % of that of the natural hatching factor", "setting": "Gp", "value": "~70", "unit": "%"}]}]}
